According to patent publication US20160052918A1, “SMALL COMPOUNDS TARGETING TACC3” (JAPANESE FOUNDATION FOR CANCER RESEARCH, priority 2012, published 2016):
In brackets after ≈: the same amount, converted by molar mass.

Assays:
Format in all cases: cell-based
[1] = system: SKOV-3 cells expressing EGFP-α-tubulin; assay: Mitotic arrest of synchronized EGFP-α-tubulin-expressing SKOV-3 cells, time-lapse single-cell analysis
Description: The EGFP-α-tubulin-expressing cells used in the assay will be described. In order to observe mitosis under a fluorescence microscope, cells expressing EGFP-α-tubulin (fusion protein of a fluorescent protein, EGFP, and α-tubulin) were prepared. A system observable under a fluorescence microscope without cell fixation was prepared.
Ovary cancer cells SKOV-3 were cultured in an RPMI1640 medium supplemented with 5% fetal bovine serum. Stable cells expressing EGFP-α-tubulin were transduced by lentiviral transduction using pLenti4/V5-DEST vectors (Registered Trade Mark) (manufactured by Invitrogen Corp.) and selected by the FACS sorting of infected cells using Zeocin (Registered Trade Mark) and subsequent FACSAria (Registered Trade Mark) (Becton, Dickinson and Company).
The compounds NPD2448, NPD2568, NPD3574, NPD4089, and C7—O-propylated NPD3574 were each added at varying concentrations to the culture medium of SKOV-3 cells expressing EGFP-α-tubulin and analyzed for their effect on cell division.
The SKOV-3 cells expressing EGFP-α-tubulin were synchronized by thymidine block to analyze the effect on cell division of each compound. As shown in the upper part of FIG. 2, each compound was added to the culture medium after the 1st thymidine block. After synchronization by the second thymidine block, images were taken every 2 minutes for 3 days using Leica AF6000 and ×20/0.5 Plan Fluotar objective lens in a phenol red-free RPMI1640 medium supplemented with 5% fetal bovine serum. These time-lapse images were analyzed using ImageJ 1.42a software, and the time of mitotic arrest was determined by visual judgment. The duration of mitosis was manually determined from the image sequences of at least 50 cells.
The mitotic arrest (EC50=50% arrest rate) was tested by the microscopic analysis of individual single cells.
EGFP-α-tubulin-expressing SKOV-3 cells synchronized by double thymidine block in the same way as in Example 2 were treated with each synthesized compound and subjected to time-lapse photography for 3 days. At least 50 cells were observed. The time of arrest of each cell was calculated, and EC50 was determined therefrom.
EGFP-α-tubulin-expressing SKOV-3 cells supplemented with each of SPL-A and SPL-B at varying concentrations were synchronized by double thymidine block in the same way as in Example 2. Analysis based on single cells was conducted by time-lapse photography. The duration of mitosis was measured from the image sequences of at least 50 cells.

mouse lymphoma cell line = assay: Cell death of lymphoma (survival rate, WST-1); conditions: 72 h, IC50=50% survival rate, three days
Description: The synthesized compounds were analyzed for their activity against cell death induction using a mouse lymphoma cell line (see Non Patent Literature 12), which was a cell line derived from thymic lymphoma developed in p53KO mouse.
The number of the lymphoma cells was adjusted to 1.2×10^5 cells/ml. The cells were inoculated at a concentration of 50 μl/well to a 96-well culture dish. A medium containing each RT compound as the novel compound of the present invention at twice the concentration of 50 μl was further added thereto (final concentration: 0.021 to 13.3 μg/ml). Three days after cultivation, the survival rate was calculated using WST-1 reagent (manufactured by F. Hoffmann-La Roche, Ltd.).

[2] = system: SKOV-3 cells expressing EGFP-α-tubulin; assay: Cell fate determination by time-lapse photography, SKOV-3; conditions: 13.3 μg/ml SPL-A or 2.7 μg/ml SPL-B
Description: (§1) The cells used were SKOV-3 cells and OVCAR-3 cells expressing EGFP-α-tubulin.
(§2) The OVCAR-3 cells expressing EGFP-α-tubulin were obtained using the same procedure as that for the SKOV-3 cells expressing EGFP-α-tubulin. The cells supplemented with each of SPL-A and SPL-B were synchronized by double thymidine block in the same way as in Example 2. Images were obtained by time-lapse photography and analyzed. The cells of each line were treated with 13.3 μg/ml SPL-A or 2.7 μg/ml SPL-B. The cell fate was manually determined from the image sequence of at least 50 cells with the time point of nuclear envelope breakdown defined as 0.

[3] = system: OVCAR-3 cells expressing EGFP-α-tubulin; assay: Cell fate determination by time-lapse photography, OVCAR-3; conditions: 13.3 μg/ml SPL-A or 2.7 μg/ml SPL-B
Description: as §1, §2

SKOV-3 cells = assay: Abnormal spindle morphology by immunostaining, SKOV-3; conditions: 24 hours
Description: (§3) SPL-A was added at each concentration to the SKOV-3 or OVCAR-3 cells. Twenty four hours after incubation, the cells were fixed and immunostained using antibodies against cell division-related substances such as α-tubulin described below. The percentage of spindle morphology was determined from at least 50 cells. The data was indicated by a mean of three independent experiments and SD.
(§4) The immunostaining was carried out by the following method: the cells were fixed in 3.7% PFA, methanol, or 10% TCA on a chamber slide, then permeabilized with 0.2% Triton-X100 in PBS, and incubated with primary antibodies. A monoclonal antibody (DM1A) against α-tubulin and monoclonal antibodies (DQ19 and GTU-88) against γ-tubulin were obtained from Sigma-Aldrich Corp. An anti-centrin 2 antibody (sc-27793) was purchased from Santa Cruz Biotechnology, Inc. Fluorescent labelled goat anti-mouse IgG (Cappel) and Cy3 labelled goat anti-rabbit IgG (Millipore) antibodies were used as secondary antibodies. DNA was detected using 4,6-diamidino-2-phenylindole (DAPI). Images were obtained using Leica DM6000B microscope equipped with ×100/1.40-0.70 PlanApo objective lens and Z-projections.
(§5) FIGS. 5A and B show the results of analyzing spindle morphology. The percentage of spindle morphology was indicated by the percentage (%) of normal, multipolar, disorganized, or monopolar spindles to the number of mitotic cells. […]

OVCAR-3 cells = assay: Abnormal spindle morphology by immunostaining, OVCAR-3; conditions: 24 hours
Description: as §3, §4, §5

[4] = system: cancer cell lines SKOV-3 and OVCAR-3; assay: G2/M-phase cells by PI flow cytometry, cancer cell lines; conditions: two cancer cell lines, 24 hours, FIG. 10
Description: (§6) (A) Two cancer cell lines SKOV-3 and OVCAR-3 and three normal cell lines hTERT-RPE, MCF 10A, and 184B5 were treated with SPL-A at concentrations shown in the abscissa of FIG. 10A for 24 hours, then stained with propidium iodide (PI), and analyzed by flow cytometry.
(§7) The same two cancer cell lines and three normal cell lines as in (A) were treated with each of paclitaxel, vincristine, and vinblastine acting on microtubule formation, S-trityl-L-cysteine (STLC) and SB743921 acting on proteins involved in mitosis, an Aurora kinase inhibitor VX680, and a polo-like kinase (PLK) inhibitor BI2536 at concentrations shown in the abscissa of FIG. 10B for 24 hours, then stained with propidium iodide (PI), and analyzed by flow cytometry.

[5] = system: normal cell lines hTERT-RPE, MCF 10A, and 184B5; assay: G2/M-phase cells by PI flow cytometry, normal cell lines; conditions: 3 normal cell lines, 24 hours, FIG. 10
Description: as §6, §7

`O=c1cc(-c2cc3ccccc3oc2=O)c2ccc(O)c(CN3CCC(CCO)CC3)c2o1` [RT-011] was tested, and the “concentration at which mitotic arrest was induced” value ([1]; Example 5, FIG. 3, final concentrations) was 2.667 µg/mL, the EC50 ([1]; Homo sapiens, SK-OV-3, 72 h, mitotic arrest, EC50=50% arrest rate, double thymidine block, time-lapse 3 days, at least 50 cells, read-out: SKOV3 EC50) was 0.79 µg/mL (≈ 1.77 µM) and the “inhibitory effects on cell growth” value ([1]; summary of Table 2 (SKOV-3 mitotic arrest and lymphoma cell death)) was “remarkable inhibitory effects on cell growth”. The IC50 (mouse lymphoma cell line) was 2.15 µg/mL (≈ 4.8 µM), the “cell fate of most cells” value [2] was “mitotic slippage” and the “cell fate of most cells” value [3] was “mitotic death”. The “percentage of cells with multipolar spindles” value (SKOV-3 cells; SKOV-3, 1.25 μg/ml) was 53.3%, the “percentage of cells with disorganized spindles” value (SKOV-3 cells; SKOV-3, 5 μg/ml) was 56.7% and the “percentage of cells with multipolar spindles” value (OVCAR-3 cells; OVCAR-3, 1.25 μg/ml) was 44.0%. The “percentage of cells with disorganized spindles” value (OVCAR-3 cells; OVCAR-3, 2.5 μg/ml) was 57.3%, the “percentage of G2/M-phase cells / cell division” value [4] was “increased the percentage of G2/M-phase cells in a concentration-dependent manner” and the “inhibitory effect on cell division” value [5] was “no inhibitory effect on cell division”.
